Tests used:
[1] = test system: TE5 cells; assay: suppression of endogenous Bcl-xL by anti-sense morpholino, western blot and active-caspase 3 assay; type: cell-based, human
Protocol: Anti-sense Bcl-xL morpholino oligonucleotides (5′-[…]-3′) (SEQID NO:2) for suppressing expression of endogenous Bcl-xL in vivo, and fluorescein-labeled standard control oligonucleotides were purchased from Gene Tools, LLC (Corvallis, Oreg.). The scrape delivery method was used to deliver the oligonucleotides to the cells. Briefly, cells (1×10^6/well) were seeded into a 6-well culture plate, and after 16 hours of incubation, the medium was changed with 1 mL of fresh medium containing 20 μM morpholino oligonucleotides (chemically modified antisense oligonucleotides). Then, the cells were scraped out of the plates using a cell scraper (SARSTEDT, Newton, N.C.). After gently pipetting up and down twice, the cells were transferred to a new culture plate. After 48 hours of incubation, the cells were treated under the indicated conditions described in the corresponding figures for the example in which the cells were used. […] The effect is not seen in normal cells.
To confirm the effect of Bcl-xL on the synergistic cell killing, we introduced anti-sense Bcl-xL morpholino oligonucleotides (AS Bcl-xL) were introduced into TE5 cells. This was to determine the effect of suppression of the endogenous Bcl-xL in the TE5 cells. […]

[2] = test system: esophageal cancer cell lines; assay: active-caspase 3 assay, TRAIL cytotoxicity on esophageal cancer cell lines; type: cell-based, human
Protocol: To assess TRAIL cytotoxicity on esophageal cancer cells, the active-caspase 3 assay was used. […] After 16 hours of the TRAIL treatment, the cells were harvested and the active-caspase 3 assay was performed as described in the Experimental Procedures above. In the case of CHX treatment, the cells were pre-treated with CHX (10 μg/mL final concentration) for 6 hours before the addition of TRAIL.
The protein synthesis inhibitor, cycloheximide (“CHX”), has been widely used with apoptosis-inducing ligands, such as FAS/FASL, TNF-α, or TRAIL, to induce cell death effectively. […] This is because previous observers have reported that over-expression of c-FLIP can interrupt the recruitment of caspase 8 into DISC, thereby preventing down stream activation of the caspase cascade (Wajant et al., J. Biol. Chem. 275:24357-24366 (2000)). It has also been reported that CHX might sensitize the cells to TRAIL by inhibiting a de novo synthesis of c-FLIP, thereby increasing the recruitment of caspase 8 into DISC (Fulda et al., Cancer Res. 60:3947-3956 (2000)), followed by activation of downstream apoptotic signaling cascade.

[3] = test system: HFK cells; assay: active-caspase 3 assay on foreskin keratinocytes; type: cell-based, human; conditions: increasing concentrations of TRAIL, 4 hours
Text: Experiments were done in duplicate (mean value±SD).

[4] = test system: EPC2 normal esophageal epithelial cells; conditions: EPC2 cells
Protocol: Normal human primary epithelial cells (EPC2, provided by Dr. Anil Rustgi, University of Pennsylvania) and primary human foreskin keratinocytes (HFK, provided by Dr. John C. Ansel, Emory University), were grown in Keratinocyte-SFM medium (Gibco BRL, Rockville, Md.) containing bovine pituitary extract (40 μg/mL) and epidermal growth factor (1 ng/mL). The primary epithelial cells were used at passage 4 or 5.
The N-terminal histidine (His) tagged recombinant human TRAIL (rhTRAIL, Thr-95 to Gly-281) was obtained from R&D Systems (Minneapolis, Minn.). A mouse monoclonal anti-6× His antibody (R&D Systems) was used for cross-linking the rhTRAIL. […] Cells were treated with TRAIL (50 ng/mL final concentration) and 1 μg/mL of anti-6× His (N-terrninal histidine antibody) for 4 hours or for 16 hours. The caspase inhibitor was used at a final concentration of 20 μM, and was added 2 hours prior to the addition of TRAIL. […] In the case of adriamycin, cells were pre-treated with adriamycin (0.5 μM final concentration) for 16 hours before the addition of TRAIL.
(§6) For detecting apoptosis mediated by TRAIL, an active-caspase 3 assay was performed using Cytofix/Cytoperm kit (Pharmingen, San Diego, Calif.), as previously described (Kim et al., Int. J. Oncol. 18:241-247 (2001)). Briefly, using standard techniques, 5×10^5 cells were seeded into a 6 well plate, after which, the cells were treated with TRAIL cross-linked with anti-6× His antibody. […] After washing, the cells were probed with 0.125 μg/μl of Phycoerythrin (PE)-conjugated goat anti-rabbit secondary antibody (Ab) (CALTAG Laboratories, Burlingame, Calif.) for 20 minutes in the dark. The intensity of PE was analyzed by flow cytometry using a Beckman-Coulter Epics Elite analyzer.

[5] = test system: TRAIL-resistant HCE4, TE3, and TE5 cells; assay: active-caspase 3 assay, adriamycin plus TRAIL; type: cell-based, human; conditions: HCE4, TE3, TE5; 0.5 μM adriamycin 16 hours, then TRAIL 4 hours; no inhibitor
Protocol: Cells were treated with TRAIL (50 ng/mL final concentration) and 1 μg/mL of anti-6× His (N-terrninal histidine antibody) for 4 hours or for 16 hours. The caspase inhibitor was used at a final concentration of 20 μM, and was added 2 hours prior to the addition of TRAIL. When the cells were treated with both cycloheximide (CHX) and TRAIL, CHX (10 μg/mL final concentration) was added 6 hours before the addition of TRAIL. In the case of adriamycin, cells were pre-treated with adriamycin (0.5 μM final concentration) for 16 hours before the addition of TRAIL.
as §6
Accordingly, adriamycin was tested to determine whether its combination with TRAIL could induce synergistic cell killing in TRAIL-resistant esophageal cancer cells. TRAIL-resistant HCE4, TE3, and TE5 cells were pre-treated with 0.5 μM adriamycin for 16 hours, followed by incubation for 4 hours in the presence of TRAIL. z-LEHD-FMK (20 μM final concentration) was added 2 hours before the addition of TRAIL. An active-caspase 3 assay was used to determine whether apoptosis occurred.
Next, z-LEHD-FMK was tested in the HCE4, TE3 and TE5 cells to determine the protective effect of z-LEHD-FMK, if any, on the synergistic cell death driven by the combination of adriamycin with TRAIL.

[6] = test system: HCE4, TE3 and TE5 cells; assay: mitochondrial transmembrane potential change, DiOC6 flow cytometry; type: cell-based, human; conditions: 0.5 μM adriamycin 16 hours; 100 nM DiOC6
Protocol: To detect any change of Δψm after treating cells with adriamycin, 3,3′-dihexyloxacarbocyanine iodide (DiOC6 (Pan et al., 1997)) were used. Briefly, 5×10^5 cells/well were seeded into a 6 well plate. After treatment with adriamycin, the cells were harvested, washed and re-suspended in complete media containing 100 nM DiOC6 (Pan et al., 1997) followed by 30 minutes incubation in a 37° C. water bath.
In addition to determine the potential mitochondrial membrane (Δψm) change after 16 hours of adriamycin (0.5 μM) pretreatment, the HCE4, TE3 and TE5 cells were incubated in the presence of 100 nM DiOC6 (Pan et al., 1997).

[7] = test system: HCE4, TE3 and TE5 cells; assay: Bax translocation, cell fractionation and western blot; type: cell-based, human; conditions: cytoplasmic and heavy membrane fractions, western blot
Protocol: (§1) Western blot analysis was carried out as previously described (Meng et al., Clin. Cancer Res. 4:251-259 (1998)). Blotted membranes were immunostained with anti-DR4 (1:500; Pharmingen), anti-DR5 (1:500; IMGENEX, San Diego, Calif.), anti-DcR1 (1:500; Pharmingen), anti-DcR2 (1:500; Pharmingen), anti-FADD (Clone IF7, 1:2000; Upstate Biotechnology, Lake Placid, N.Y.), anti-caspase 8 (Clone 5F7, 1:1000; Upstate Biotechnology), anti-FLIP (Clone Dave-2, 1:1000; Alexis Biochemicals, San Diego, Calif.), anti-Bid (1:500; Pharmingen), anti-Bax (1:500, Pharmingen), anti Bcl-2 (Bcl-2/100, 1:500; Pharmingen), anti-Bcl-xL (1:500; Pharmingen), anti-caspase 3 (E-8, 1:200; Santa Cruz, Santa Cruz, Calif.), anti-PARP (1:2000; Roche Diagnostics GmbH, Mannheim, Germany), anti-TRAIL (1:500; PeproTech Inc., Rocky Hill, N.J.), or anti-actin (I-19, 1:200; Santa Cruz).
To prepare cytoplasmic fraction and mitochondria-rich heavy membrane fraction, cells were harvested, washed, and then re-suspended in RSB100 (10 mM Tris-HCl, pH 7.4, 2.5 mM MgCl2, 100 mM NaCl) containing 35 μg/mL digitonin (Calbiochem, San Diego, Calif.), and 1× complete protease inhibitor cocktail (Roche Diagnostics). After incubation on ice for 5 minutes, the cells were disrupted by passage through a 25G needle. […] Protein quantity was measured using Bio-Rad protein assay reagent (Bio-Rad, Hercules, Calif.). […]

[8] = test system: EPC2; assay: mitochondrial transmembrane potential change; type: cell-based, human; conditions: data not shown
[9] = test system: HCE4 cells; assay: DISC IP analysis, recruitment of caspase 8 into DISC; type: cell-based, human; conditions: CHX-pre-treated vs control
Protocol: (§2) To perform the DISC analysis, cells were grown, harvested and re-suspended in 2 mL of DMEM (1.5×10^7 cells/mL). TRAIL (500 ng/mL final concentration) and anti-6× His antibody (2.5 μg/mL final concentration) were pre-mixed for 10 minutes on ice, then added to the re-suspended cells. The cells were treated with TRAIL for 20 minutes in a 37° C. water bath with intermittent agitation. TRAIL treatment was stopped by adding 5 mL of ice-cold PBS, followed by immediate centrifugation. […]
(§3) To the cleared lysate, 30 μL of protein A/G plus agarose beads (Santa Cruz) were added and incubated overnight in a cold room with continuous rocking. […] After centrifugation at the same condition, the precipitates were re-suspended in 1× SDS loading buffer and analyzed by 12% SDS-PAGE and western immunostaining.
(§4) In the control used to verify the DISC without TRAIL stimulation, the same amounts of TRAIL and antibody were added to the lysate after the cells were lysed with IP lysis buffer. Equal amounts of total cell lysates were also analyzed as an expression control. […]
(§5) FIGS. 3A and 3B depict an immunostained western blot showing the sensitization of TRAIL-resistant HCE4 cells to TRAIL resulting from CHX pre-treatment. […] Actin levels were measured as a control standard.

[10] = test system: TE9 cells; assay: as above; type: cell-based, human; conditions: CHX-pre-treated vs control
Protocol: as §2, §3, §4, §5

[11] = test system: TRAIL-resistant HCE4 cell line; assay: time course western blot of caspase activation and PARP cleavage; type: cell-based, human; conditions: only in CHX-pretreated HCE4 cells; 6 hours CHX pre-incubation
Protocol: as §1
A time course experiment was performed using the TRAIL-resistant HCE4 cell line. After 6 hours of pre-incubation in the presence or absence of CHX, the cells were exposed to TRAIL, then lysates were prepared and harvested at time points every 30 minutes after the addition of TRAIL, up to 4 hrs by adding 1× SDS loading buffer. The timed lysates were subjected to 10 or 12% SDS-PAGE, and then immunoblotted and stained with the indicated antibodies (FIG. 3). […]

[12] = test system: all cells, including cancer cells; assay: protection from the killing effect of TRAIL by caspase inhibitors; type: cell-based; conditions: stated without experimental detail

AS Bcl-xL: Anti-sense Bcl-xL morpholino oligonucleotide 5'-CGGTTGCTCTGAGACATTTTTATA-3' (SEQID NO:2), from Gene Tools (all phosphorodiamidate morpholino (PMO))
expression of endogenous Bcl-xL ([1]; 20 μM morpholino oligonucleotide, scrape delivery, western blot): suppression of endogenous Bcl-xL was observed | cell death by adriamycin plus TRAIL when Bcl-xL is suppressed ([1]; even in the presence of z-LEHD-FMK): underwent synergistic apoptotic cell death

TRAIL: N-terminal histidine tagged recombinant human TRAIL (Thr-95 to Gly-281) from R&D Systems, cross-linked with anti-6x His antibody
TRAIL sensitivity (more than 30% of the cells active-caspase 3 positive) ([2]; TE2, TE9 and TE12 cell lines, TRAIL cross-linked with anti-6x His antibody, 16 hours): sensitive to TRAIL | TRAIL cytotoxicity (active-caspase 3) [3]: not affected | TRAIL cytotoxicity (active-caspase 3) ([4]; TRAIL 5, 10, 25 or 50 ng/mL, 4 hours): showed cytotoxicity in a dose dependent manner

COc1cccc2c1C(=O)c1c(O)c3c(c(O)c1C2=O)C[C@@](O)(C(=O)CO)C[C@@H]3O[C@H]1C[C@H](N)[C@H](O)[C@H](C)O1 [adriamycin, doxorubicin]
cell killing by combination of adriamycin and TRAIL [5]: the effect was synergistic | drop of Δψm after adriamycin treatment [6]: a drop of Δψm was observed only in the HCE4 cells | Bax translocation from the cytosol to the mitochondria after adriamycin treatment [7]: only in the HCE4 cells | drop of Δψm after adriamycin [8]: did not induce drop of Δψm | cell killing by combination of TRAIL and adriamycin ([4]; no inhibitor): synergistically killed

C[C@@H]1C[C@@H]([C@H](O)CC2CC(=O)NC(=O)C2)C(=O)[C@@H](C)C1 [CHX, cycloheximide]
sensitization to TRAIL by CHX pre-treatment ([2]; all cancer cell lines, CHX 10 μg/mL for 6 hours before TRAIL): became sensitized to TRAIL | amount of caspase 8 in the DISC after CHX pre-treatment [9]: slight decrease | amount of caspase 8 recruited into DISC after CHX pre-treatment [10]: no increase | onset of activation of caspase 8, Bid, caspase 9 and cleavage of PARP after TRAIL treatment [11]: approximately 1 hour

z-IETD-FMK
protection from the killing effect of TRAIL [12]: protect all cells, including cancer cells, from the killing effect of TRAIL
